Test results from the supplement of paper PMC11061612.

How the values were obtained:
[1] = tested on: EJM (Plasma Cell Myeloma); test: Bliss excess, mean over the matrix (fraction); higher = more synergy
In short: (§1)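 Cell lines in DMEM/F12 or RPMI with 10% FBS were plated in 1536-well plates, held 24 hours at 37°C, 5% CO2, then given two-drug dose matrices for 72 hours (DMSO typically 0.2%). Viability was read by CellTiter-Glo 2.0 luminescence and scaled as inhibition from 0 (vehicle wells) to 1 (blank wells). Combination Emax is the second-highest inhibition in the matrix; Bliss excess is observed combination effect minus expected EA + EB − EA·EB, EA and EB being single-agent effects.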

[2] = tested on: NCI-H2122 (Lung Adenocarcinoma); test: as above
In short: as §1

[3] = tested on: MDA-MB-453 (Breast Carcinoma); test: combination Emax (second highest fraction inhibited in the dose matrix, 72 h); higher = more inhibition; extreme values may be limits of the assay
In short: as §1

[4] = tested on: SNU-387 (Hepatocellular Carcinoma); test: as above
In short: as §1

[5] = tested on: SW872 (Other Solid Carcinomas); test: as above
In short: as §1

[6] = tested on: OACM5-1 (Esophageal Adenocarcinoma); test: as above
In short: as §1

COLO-679 (Melanoma) = test: as above
In short: as §1

[7] = tested on: NCI-H1092 (Small Cell Lung Carcinoma); test: as above
In short: as §1

[8] = tested on: MV-4-11 (Acute Myeloid Leukemia); test: as above
In short: as §1

[9] = tested on: MOLT-4 (T-Lymphoblastic Leukemia); test: as above
In short: as §1

[10] = tested on: HCC1937 (Breast Carcinoma); test: as above
In short: as §1

[11] = tested on: HAL-01 (B-Lymphoblastic Leukemia); test: as above
In short: as §1

[12] = tested on: A4-Fuk (B-Lymphoblastic Leukemia); test: as above
In short: as §1

[13] = tested on: KOPN-8 (B-Lymphoblastic Leukemia); test: as above
In short: as §1

[14] = tested on: NCI-H1838 (Lung Adenocarcinoma); test: as above
In short: as §1

[15] = tested on: NCI-H2122 (Lung Adenocarcinoma); test: as above
In short: as §1

[16] = tested on: SK-LU-1 (Lung Adenocarcinoma); test: as above
In short: as §1

[17] = tested on: KGN (Other Solid Carcinomas); test: as above
In short: as §1

[18] = tested on: ME-180 (Cervical Carcinoma); test: as above
In short: as §1

EW-1 (Ewing's Sarcoma) = test: as above
In short: as §1
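Wherever Bliss excess, mean over the matrix is given: after 72 h of two-drug dosing.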

| SMILES | Bliss excess [1] | Bliss excess [2] | combination Emax [3] | combination Emax [4] | combination Emax [5] | combination Emax [6] | combination Emax (COLO-679 (Melanoma)) | combination Emax [7] | combination Emax [8] | combination Emax [9] | combination Emax [10] | combination Emax [11] | combination Emax [12] | combination Emax [13] | combination Emax [14] | combination Emax [15] | combination Emax [16] | combination Emax [17] | combination Emax [18] | combination Emax (EW-1 (Ewing's Sarcoma)) |
| --- | --- | --- | --- | --- | --- | --- | --- | --- | --- | --- | --- | --- | --- | --- | --- | --- | --- | --- | --- | --- |
| NC1(C(=O)N[C@@H](CCO)c2ccc(Cl)cc2)CCN(c2ncnc3[nH]ccc23)CC1 [Capivasertib] + CCN(CCO)CCCOc1ccc2c(Nc3cc(CC(=O)Nc4cccc(F)c4)[nH]n3)ncnc2c1 [AZD2811] (first compound max 10 µM, 7x7, partner max 1 µM) | 0.0798 | -0.0827 | 0.599 | 0.312 | 0.336 | 0.763 | 0.31 | 0.353 | 0.954 | 0.997 | 0.481 | 0.464 | 0.878 | 0.86 | 0.386 | 0.797 | 0.195 | 0.688 | 0.7 | 0.568 |
| NC1(C(=O)N[C@@H](CCO)c2ccc(Cl)cc2)CCN(c2ncnc3[nH]ccc23)CC1 [Capivasertib] + COc1nnc2ccc(N3CCC(c4ccc(OCCN5CCN(C)C(=O)[C@H]5C)cc4)CC3)nn12 [AZD5153] (first compound max 10 µM, 7x7, partner max 1 µM) | 0.0732 | 0.0243 | 0.93 | 0.552 | 0.553 | 0.805 | 0.578 | 0.364 | 1 | 1 | 0.44 | 0.719 | 0.95 | 0.992 | 0.264 | 0.817 | 0.381 | 0.709 | 0.693 | 0.71 |
| NC1(C(=O)N[C@@H](CCO)c2ccc(Cl)cc2)CCN(c2ncnc3[nH]ccc23)CC1 [Capivasertib] + C[C@@H]1COCCN1C2=NC(=NC(=C2)C3(CC3)[S@](=N)(=O)C)C4=C5C=CNC5=NC=C4 [AZD6738] (first compound max 10 µM, 7x7, partner max 10 µM) | 0.0305 | -0.0658 | 0.706 | 0.613 | 0.452 | 0.774 | 0.634 | 0.387 | 0.975 | 1 | 0.518 | 0.97 | 0.942 | 0.986 | 0.494 | 0.974 | 0.511 | 0.9 | 0.755 | 0.938 |
| NC1(C(=O)N[C@@H](CCO)c2ccc(Cl)cc2)CCN(c2ncnc3[nH]ccc23)CC1 [Capivasertib] + Cn1cnc2c(F)c(Nc3ccc(Br)cc3Cl)c(C(=O)NOCCO)cc21 [Selumetinib] (first compound max 10 µM, 7x7, partner max 10 µM) | 0.08 | 0.0107 | 0.572 | 0.409 | 0.449 | 0.7 | 0.786 | 0.215 | 0.881 | 0.758 | 0.527 | 0.554 | 0.905 | 0.722 | 0.367 | 0.983 | 0.437 | 0.54 | 0.681 | 0.437 |
| CS(=O)(=O)CCNCc1ccc(-c2ccc3ncnc(Nc4ccc(OCc5cccc(F)c5)c(Cl)c4)c3c2)o1 [Lapatinib] + C[C@@H](Oc1cc(-c2cnn(C3CCNCC3)c2)cnc1N)c1c(Cl)ccc(F)c1Cl [Crizotinib] (first compound max 10 µM, 7x7, partner max 10 µM) | -0.0001 | -0.0181 | 0.531 | 0.93 | 0.496 | 0.889 | 0.68 | 0.604 | 0.978 | 0.966 | 0.674 | 0.955 | 0.976 | 0.978 | 0.436 | 0.962 | 0.451 | 0.944 | 0.81 | 0.966 |
| CC(=O)c1c(C)c2cnc(Nc3ccc(N4CCNCC4)cn3)nc2n(C2CCCC2)c1=O [Palbociclib] + CC1(C)CCC(CN2CCN(c3ccc(C(=O)NS(=O)(=O)c4ccc(NCC5CCOCC5)c([N+](=O)[O-])c4)c(Oc4cnc5[nH]ccc5c4)c3)CC2)=C(c2ccc(Cl)cc2)C1 [Venetoclax] (first compound max 10 µM, 7x7, partner max 1 µM) | -0.0211 | -0.0327 | 0.275 | 0.129 | 0.0843 | 0.479 | 0.0736 | 0.222 | 1 | 0.629 | 0.0808 | 0.99 | 0.552 | 0.958 | 0.279 | 0.688 | 0.279 | 0.507 | 0.0846 | 0.528 |
| CC(=O)c1c(C)c2cnc(Nc3ccc(N4CCNCC4)cn3)nc2n(C2CCCC2)c1=O [Palbociclib] + Cc1c2c(nn1C)CSCc1cc(n(C)n1)CSc1cc(c3ccccc3c1)OCCCc1c(C(=O)O)n(C)c3c-2c(Cl)ccc13 [AZD5991] (first compound max 10 µM, 7x7, partner max 1 µM) | -0.0517 | -0.0218 | 0.282 | 0.429 | 0.228 | 0.932 | 0.335 | 0.608 | 1 | 0.9 | 0.242 | 0.935 | 1 | 0.917 | 0.363 | 0.773 | 0.297 | 0.644 | 0.151 | 0.491 |
| CC(=O)c1c(C)c2cnc(Nc3ccc(N4CCNCC4)cn3)nc2n(C2CCCC2)c1=O [Palbociclib] + Cn1cnc2c(F)c(Nc3ccc(Br)cc3Cl)c(C(=O)NOCCO)cc21 [Selumetinib] (first compound max 10 µM, 7x7, partner max 10 µM) | -0.0193 | 0.0823 | 0.241 | 0.221 | 0.169 | 0.477 | 0.75 | 0.11 | 0.955 | 0.766 | 0.214 | 0.928 | 0.732 | 0.801 | 0.321 | 0.954 | 0.362 | 0.529 | 0.297 | 0.551 |
| Cn1cnc2c(F)c(Nc3ccc(Br)cc3Cl)c(C(=O)NOCCO)cc21 [Selumetinib] + C=CCn1c(=O)c2cnc(Nc3ccc(N4CCN(C)CC4)cc3)nc2n1-c1cccc(C(C)(C)O)n1 [AZD1775] (first compound max 10 µM, partner max 1 µM) | -0.0146 | 0.0552 | 0.206 | 0.544 | 0.29 | 0.642 | 0.823 | 0.371 | 0.915 | 1 | 0.562 | 0.876 | 0.948 | 0.995 | 0.468 | 0.985 | 0.46 | 0.695 | 0.478 | 0.883 |
| Cn1cnc2c(F)c(Nc3ccc(Br)cc3Cl)c(C(=O)NOCCO)cc21 [Selumetinib] + CC(C)n1c(=O)n(C)c2cnc3cc(F)c(-c4ccc(OCCCN5CCCCC5)nc4)cc3c21 [AZD1390] (first compound max 10 µM, 7x7, partner max 0.3 µM) | -0.0131 | -0.0099 | 0.171 | 0.284 | 0.203 | 0.209 | 0.796 | 0.0809 | 0.711 | 0.348 | 0.208 | 0.48 | 0.404 | 0.596 | 0.237 | 0.864 | 0.264 | 0.341 | 0.209 | 0.159 |
| Cn1cnc2c(F)c(Nc3ccc(Br)cc3Cl)c(C(=O)NOCCO)cc21 [Selumetinib] + CCN(CCO)CCCOc1ccc2c(Nc3cc(CC(=O)Nc4cccc(F)c4)[nH]n3)ncnc2c1 [AZD2811] (first compound max 10 µM, 7x7, partner max 1 µM) | 0.0145 | -0.0258 | 0.162 | 0.319 | 0.285 | 0.44 | 0.815 | 0.215 | 0.974 | 0.992 | 0.314 | 0.441 | 0.661 | 1 | 0.322 | 0.962 | 0.301 | 0.514 | 0.245 | 0.391 |
| Cn1cnc2c(F)c(Nc3ccc(Br)cc3Cl)c(C(=O)NOCCO)cc21 [Selumetinib] + C[C@@H]1COCCN1C2=NC(=NC(=C2)C3(CC3)[S@](=N)(=O)C)C4=C5C=CNC5=NC=C4 [AZD6738] (first compound max 10 µM, 7x7, partner max 10 µM) | -0.0321 | 0.0539 | 0.684 | 0.454 | 0.276 | 0.612 | 0.82 | 0.111 | 0.97 | 0.991 | 0.421 | 0.976 | 0.836 | 1 | 0.374 | 0.972 | 0.376 | 0.808 | 0.465 | 0.892 |
